Assay results published in the supplement of paper PMC6045584.
± gives the standard deviation of the averaged measurements.

How the values were obtained:
DASATINIB = compound: Cc1nc(Nc2ncc(C(=O)Nc3c(C)cccc3Cl)s2)cc(N2CCN(CCO)CC2)n1 [DASATINIB]; experiment: surviving fraction relative to DMSO-only wells; higher = less growth inhibition; settings: exposure time: 5 days
How it was run: (§1)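 Log-phase tumour cell lines, 250–500 cells per well in 384-well plates, received inhibitors at 0.5, 1, 5, 10, 50, 100, 500 and 1000 nM continuously for five days, starting 24 hours after seeding. Viability was quantified with CellTiter-Glo luminescence and normalised to the median of DMSO-only wells to give surviving fraction. Three screens were run per line, and a line stayed in only with replicate Pearson r >0.7 and median Z' >0.3.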

SOTRASTAURIN/AEB071 [1] = compound: T1, CN1CCN(c2nc(C3=C(c4c[nH]c5ccccc45)C(=O)NC3=O)c3ccccc3n2)CC1 [SOTRASTAURIN/AEB071]; experiment: as above; settings: exposure time: 5 days
How it was run: as §1

ABIRATERONE = compound: C[C@]12CC[C@H](O)CC1=CC[C@@H]1[C@@H]2CC[C@]2(C)C(c3cccnc3)=CC[C@@H]12 [ABIRATERONE]; experiment: area under dose-response curve of surviving fraction (unscaled, Aref=0) (surviving fraction x log10(nM)); higher = more resistant; settings: exposure time: 5 days; dose range 0.5-1000 nM
How it was run: (§2)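 Each tumour cell line was screened three times in 384-well plates, receiving eight inhibitor concentrations from 0.5 to 1000 nM for five days. CellTiter-Glo luminescence gave viability, normalised to DMSO-only wells. Using the drc R package, surviving fractions were fitted with 3-parameter logistic dose-response curves, and the unscaled activity area over log10 dose (Aref = 0) was taken as the area under the curve.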

[2] = compound: CCn1c(C(=O)N(C2CC2)C2CC2)cc2c3c(ncn3C)c(Nc3cc(C)n(C)n3)nc21; experiment: as above; settings: exposure time: 5 days; dose range 0.5-1000 nM
How it was run: as §2

[3] = compound: CNCc1ccc(-c2[nH]c3cc(F)cc4c3c2CCNC4=O)cc1; experiment: as above; settings: exposure time: 5 days; dose range 0.5-1000 nM
How it was run: as §2

SOTRASTAURIN/AEB071 [4] = compound: T1, SOTRASTAURIN/AEB071; experiment: as above; settings: exposure time: 5 days; dose range 0.5-1000 nM
How it was run: as §2

Row | Test System | surviving fraction (DASATINIB; 0.5 nM) | surviving fraction (DASATINIB; 1 nM) | surviving fraction (DASATINIB; 5 nM) | surviving fraction (DASATINIB; 10 nM) | surviving fraction (DASATINIB; 50 nM) | surviving fraction (DASATINIB; 100 nM) | surviving fraction (DASATINIB; 500 nM) | surviving fraction (DASATINIB; 1000 nM) | surviving fraction (SOTRASTAURIN/AEB071 [1]; 0.5 nM) | surviving fraction (SOTRASTAURIN/AEB071 [1]; 1 nM) | surviving fraction (SOTRASTAURIN/AEB071 [1]; 5 nM) | surviving fraction (SOTRASTAURIN/AEB071 [1]; 10 nM) | surviving fraction (SOTRASTAURIN/AEB071 [1]; 50 nM) | surviving fraction (SOTRASTAURIN/AEB071 [1]; 100 nM) | surviving fraction (SOTRASTAURIN/AEB071 [1]; 500 nM) | surviving fraction (SOTRASTAURIN/AEB071 [1]; 1000 nM) | area under dose-response curve (ABIRATERONE) | area under dose-response curve [2] | area under dose-response curve [3] | area under dose-response curve (SOTRASTAURIN/AEB071 [4])
1 | 143B BONE | 1.04 ± 0.058 | 1.03 ± 0.025 | 1.01 ± 0.046 | 0.9835 ± 0.00071 | 0.8695 ± 0.005 | 0.806 ± 0.019 | 0.7575 ± 0.0035 | 0.75 ± 0.042 | 1.067 ± 0.0071 | 1.08 ± 0.037 | 1.14 ± 0.14 | 1.04 ± 0.014 | 1.09 ± 0.037 | 1.14 ± 0.11 | 1.12 ± 0.096 | 1.09 ± 0.063 | 3.51 | 3.44 | – | –
2 | A549 LUNG | 0.915 ± 0.0066 | 0.9003 ± 0.0076 | 0.879 ± 0.02 | 0.859 ± 0.018 | 0.858 ± 0.033 | 0.8223 ± 0.0025 | 0.646 ± 0.028 | 0.631 ± 0.012 | 1.059 ± 0.0099 | 1.11 ± 0.015 | 1.076 ± 0.0085 | 1.06 ± 0.017 | 1.07 ± 0.021 | 1.102 ± 0.0085 | 1.07 ± 0.03 | 1.06 ± 0.048 | 3.53 | 3.2 | 3.56 | –
3 | BT549 BREAST | 0.968 ± 0.16 | 0.937 ± 0.12 | 0.774 ± 0.12 | 0.669 ± 0.056 | 0.395 ± 0.037 | 0.236 ± 0.018 | 0.113 ± 0.012 | 0.114 ± 0.037 | 0.889 ± 0.093 | 1.06 ± 0.068 | 1.01 ± 0.19 | 1.16 ± 0.2 | 0.904 ± 0.095 | 0.897 ± 0.035 | 0.919 ± 0.12 | 1.07 ± 0.16 | – | 3.29 | 3 | 3.27
4 | C33A CERVIX | 0.869 ± 0.078 | 0.772 ± 0.044 | 0.521 ± 0.034 | 0.419 ± 0.008 | 0.219 ± 0.026 | 0.182 ± 0.0036 | 0.157 ± 0.0025 | 0.172 ± 0.0091 | 0.938 ± 0.17 | 1.05 ± 0.059 | 1.14 ± 0.045 | 1.05 ± 0.12 | 1.19 ± 0.071 | 1.16 ± 0.13 | 1.14 ± 0.077 | 1.2 ± 0.086 | – | 3.14 | 3.29 | 3.68
5 | CADOES1 SOFT TISSUE | 1.04 ± 0.07 | 1.01 ± 0.034 | 0.91 ± 0.042 | 0.939 ± 0.11 | 1.01 ± 0.079 | 0.973 ± 0.081 | 1.05 ± 0.099 | 1.14 ± 0.1 | 1.04 ± 0.11 | 0.908 ± 0.11 | 1 ± 0.18 | 0.926 ± 0.1 | 0.923 ± 0.019 | 0.973 ± 0.14 | 1.04 ± 0.055 | 0.962 ± 0.18 | – | 3.08 | 2.97 | 3.21
6 | CASKI CERVIX | 0.732 ± 0.045 | 0.777 ± 0.052 | 0.69 ± 0.024 | 0.474 ± 0.03 | 0.121 ± 0.0042 | 0.0747 ± 0.0047 | 0.0433 ± 0.0023 | 0.0293 ± 0.00058 | 0.955 ± 0.051 | 0.962 ± 0.08 | 0.974 ± 0.035 | 0.906 ± 0.026 | 0.989 ± 0.12 | 0.898 ± 0.047 | 0.975 ± 0.021 | 0.863 ± 0.036 | – | 3.21 | 3.04 | 3.1
